Broadly, the melting point is the temperature of the solid-liquid transition. Broadly, the EC50 is the midpoint of the concentration-response curve.

On the set-up of data set [1]: method as in PMID 20664173. Conditions: cited from earlier work.
Data set [2] addresses T1, CB1 receptor (Rattus norvegicus, UniProt P20272).
T1 construct: from tissue; host or cells: whole living animal (male Wistar rat); receptor endogenous in central and peripheral tissues
Put plainly: In vivo CB1 receptor antagonistic activity against WIN-55212-2 hyperphagia. Conditions: 24 h fasted rats, test compound 10 mg/kg p.o., WIN-55212-2 2 mg/kg i.p. The procedure:
Here also, the quantity of feed consumed by the control group animals was taken as 100%.
In another set of experiments, in vivo CB1 receptor antagonistic activity of the test compounds was assessed.

For data set [3], the system named is Wistar rats. Put plainly: Acute hypophagic response in 24 h food-deprived rats. The note with it: for effect on food intake (in words): 2 h; for food intake (control = 100%): 10 mg/kg. It counts as in vivo, rat. How it is done: As a preliminary screening, the synthesized compounds were evaluated for acute hypophagia in rats and the results are summarized in Fig. 5. Twenty four hour food deprived Wistar rats were given weighed amounts of food pellets after administration of the test compounds. Quantum of food consumed by the control group of animals was considered as 100%.
Male Wistar rats weighing 200–250 g were used in the present study to assess the acute hypophagic response. Animals were housed individually in a plexi-glass cage in a temperature and humidity controlled room with a 12 h light/dark cycle. Standard chow pellets and water were made available ad libitum. Animals were handled daily for a week before performing the actual experiments. The animal study protocol was approved by the Institutional Animal Ethics Committee (IAEC) of Faculty of Pharmacy, The Maharaja Sayajirao University of Baroda (Approval no. MSU/IAEC/2014-15/1401). The experiments were conducted in accordance to the guidelines of CPCSEA (Committee for the Purpose of Control and Supervision of Experiments on Animals), Ministry of Environment & Forests, Govt. of India. We tried our best to reduce the number of animals and their suffering.
The acute effect of the synthesized test compounds on feeding behavior was assessed in 24 h food-deprived animals. Before performing the experiments, the bedding material was removed from the cage. The animals were deprived of feed for 24 h with free access to water. The fasted animals were administered with the test compounds (10 mg/kg, p.o.). After 30 min of administration, weighed amounts of food pellets were served to the animals. Amount of food pellets and food spillage remaining after 2 h were weighed to find out the amount of food consumed by the animals.

Data set [4] can be described thus: PAMPA-BBB in vitro permeability assay. On the set-up: key to Prediction (penetration in CNS): CNS- indicates low passive CNS permeation. It counts as in vitro ADME, porcine. Conditions: for Prediction (penetration in CNS): from PAMPA-BBB Pe, Pe less than 3.8 × 10^−6 cm s^−1 = low BBB permeation; for Papp at 120 min, 100 µg/ml: pig, PAMPA-BBB, porcine brain lipid, PBS/ethanol (70:30), 25 °C, mean ± SEM of three experiments, read-out: Pe. How it is done:
As discussed above, BBB permeation of the available CB1 receptor antagonists limits their therapeutic utility. A successful CB1 receptor antagonist to be used as anti-obesity agent must be devoid of BBB permeability. […] In this study, the ability of the test compounds to cross the BBB was determined by the well established in vitro model PAMPA-BBB assay. This simple and rapid model has the advantage to predict passive BBB permeation with high accuracy[57],[58]. The in vitro permeability (Pe) of the test compounds through the lipid extract of porcine brain was determined in PBS/ethanol (70:30).
To assess the in vivo brain permeability potential of the test compounds, PAMPA assay for BBB was performed as reported by Di. et al.[57]. The donor microplate (polyvinylidene fluoride (PVDF) membrane, diameter 25 mm, pore size 0.45 µm Millipore) and the acceptor microplate were used for the experiment. The acceptor microplate was filled with 200 µl phosphate buffer saline (PBS) and ethanol in the ratio of 70:30 whereas the donor microplate filter surface was impregnated with porcine brain lipid (Avanti Polar Lipids) in dodecane (Sigma) (4 µl of 20 mg/ml). 200 µl of the test compound (100 µg/ml in PBS/ethanol) was added to the donor well. A sandwich was formed by placing the donor plate carefully on the acceptor plate, and the plates were kept undisturbed for 120 min at 25 °C. The donor plate was carefully detached after the incubation period and concentration of the test compound in the acceptor wells was determined using UV spectroscopy. Each sample was analyzed in four wells at five different wavelengths, and at least in three independent runs. Assay validation was performed by using nine commercial quality standard drugs of known BBB permeability[75] in which the reported permeability values of the standards were compared with their experimental permeability values, which gave a linear relationship, Pe(exp.) = 1.171Pe(bibl.) + 1.489 (R^2 = 0.983)[57],[58].

Data set [5] relates to CB1R. On the set-up: method as in PMID 20652930. Conditions: read-out: CB1R antagonist activity EC50; cited from earlier work.
Setting [6] is: 24 h fasted male Wistar rats, 10 mg/kg p.o.
[7] abbreviates: 24 h fasted male Wistar rats, 10 mg/kg p.o., food served after 30 min, intake over 2 h.

T1 sequence (P20272 whole entry): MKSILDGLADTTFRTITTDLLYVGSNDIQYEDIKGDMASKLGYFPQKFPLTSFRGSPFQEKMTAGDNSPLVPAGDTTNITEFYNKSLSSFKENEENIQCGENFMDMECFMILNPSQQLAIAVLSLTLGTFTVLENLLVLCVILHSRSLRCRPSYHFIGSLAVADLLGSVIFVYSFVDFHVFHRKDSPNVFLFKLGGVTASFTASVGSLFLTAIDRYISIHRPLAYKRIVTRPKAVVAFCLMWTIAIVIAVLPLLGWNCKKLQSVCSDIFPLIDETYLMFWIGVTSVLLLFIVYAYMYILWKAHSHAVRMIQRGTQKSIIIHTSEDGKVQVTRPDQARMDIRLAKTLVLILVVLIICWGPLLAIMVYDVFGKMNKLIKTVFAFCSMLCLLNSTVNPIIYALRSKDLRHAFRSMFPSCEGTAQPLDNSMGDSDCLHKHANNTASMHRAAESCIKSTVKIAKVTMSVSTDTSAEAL

In the case of `Cc1c(C(=O)NN2CCS(=O)(=O)CC2)nn(-c2ccc(Cl)cc2Cl)c1-c1ccc(C#CCCC#N)cc1` [AM-6545], in data set [1], the “brain penetration (in words)” value is on record as “limited brain penetration”.

`COc1ccc2c(c1)N(C(=O)CSc1ncc(C#N)c(N)n1)c1ccccc1S2` [Compound 23, 4-Amino-2-(2-(2-methoxy-10H-phenothiazin-10-yl)-2-oxoethylthio)pyrimidine-5-carbonitrile] registered a melting point of 215 to 217 °C. Moreover, the “effect on hyperphagic effect of WIN-55212-2 (in words)” value (shortened to “effect on hyperphagic effect”) in data set [2] is listed as “suppressed the hyperphagic effect of WIN-55212-2”. In addition, in data set [3] (setting [6]), the “effect on food intake (in words)” value was “significant hypophagic activity”. Also, the “food intake (control = 100%)” value in data set [3] (setting [7]) is 19–43%. In data set [3] (po), the “food intake (control = 100%)” value is on record as 19%. In data set [4], the “Prediction (penetration in CNS)” value was “CNS-” and the Papp at 120 min, 100 µg/ml was 3.08 ± 0.16 ×10⁻⁶ cm/s.

`CCOC(=O)c1cnc(SCC(=O)N2c3ccccc3Sc3ccc(C(F)(F)F)cc32)nc1N` [Compound 25, Ethyl 4-amino-2-(2-(2-trifluoromethyl-10H-phenothiazin-10-yl)-2-oxoethylthio)-pyrimidine-5-carboxylate] displayed a melting point of 148 to 151 °C. Moreover, in data set [2], the “effect on hyperphagic effect” value is given as “suppressed the hyperphagic effect of WIN-55212-2”. Also, the “effect on food intake (in words)” value in data set [3] (setting [6]) was “significant hypophagic activity”. Also, the “food intake (control = 100%)” value in data set [3] (setting [7]) is 19–43%. In addition, the “food intake (control = 100%)” value in data set [3] (po) is recorded as 37%. In addition, in data set [4], the “Prediction (penetration in CNS)” value is recorded as “CNS-” and the Papp at 120 min, 100 µg/ml is 2.72 ± 0.19 ×10⁻⁶ cm/s.

In the case of `CCOC(=O)c1cnc(SCC(=O)N2c3ccccc3Sc3ccc(OC)cc32)nc1N` [Compound 27, Ethyl 4-amino-2-(2-(2-methoxy-10H-phenothiazin-10-yl)-2-oxoethylthio)pyrimidine-5-carboxylate], the melting point was in the range of 104 to 106 °C. Further, in data set [2], the “effect on hyperphagic effect” value is given as “suppressed the hyperphagic effect of WIN-55212-2”. Besides, the “effect on food intake (in words)” value in data set [3] (setting [6]) was “significant hypophagic activity”. The “food intake (control = 100%)” value in data set [3] (setting [7]) is recorded as 19–43%. Further, in data set [3] (po), the “food intake (control = 100%)” value is given as 19%. Also, in data set [4], the “Prediction (penetration in CNS)” value was “CNS-” and the Papp at 120 min, 100 µg/ml is 2.8 ± 0.58 ×10⁻⁶ cm/s.

For the compound `Nn1c(SCC(=O)N2c3ccccc3Sc3ccc(Cl)cc32)nnc1-c1ccncc1` [Compound 34, 2-(4-Amino-5-(4-pyridyl)-4H-1,2,4-triazol-3-ylthio)-1-(2-chloro-10H-phenothiazin-10-yl)ethanone], the melting point lay in the range of 225 to 227 °C. For the same compound, the “effect on hyperphagic effect” value in data set [2] is listed as “suppressed the hyperphagic effect of WIN-55212-2”. For the same compound, the “effect on food intake (in words)” value in data set [3] (setting [6]) is “significant hypophagic activity”. In data set [4], the “Prediction (penetration in CNS)” value was “CNS-” and the Papp at 120 min, 100 µg/ml is 2.09 ± 0.82 ×10⁻⁶ cm/s.

As to `CCc1c(C(=O)NN2CCCCC2)nn(-c2ccc(Cl)cc2Cl)c1-c1ccc(C#Cc2ccc(C(F)(F)F)cc2)s1` [TM38837], the EC50 in data set [5] was 8.5 nM.

The record behind these values is PMC5785958, “New role of phenothiazine derivatives as peripherally acting CB1 receptor antagonizing anti-obesity agents” (Scientific Reports, 2018).
